The record followed here is patent US7880007B2, “Bicyclic substituted phenyl piperidine modulators of muscarinic receptors” (Vertex Pharmaceuticals Incorporated, priority 2004, dated 2011).

Holding throughout (assay type): cell-based
Experiment [1] deals with T1, M1 muscarinic receptor (Homo sapiens, UniProt P11229).
T1 construct: expressed in transfected cells; host or cells: CHO (M1-CHO)
T1 sequence (P11229 1-460): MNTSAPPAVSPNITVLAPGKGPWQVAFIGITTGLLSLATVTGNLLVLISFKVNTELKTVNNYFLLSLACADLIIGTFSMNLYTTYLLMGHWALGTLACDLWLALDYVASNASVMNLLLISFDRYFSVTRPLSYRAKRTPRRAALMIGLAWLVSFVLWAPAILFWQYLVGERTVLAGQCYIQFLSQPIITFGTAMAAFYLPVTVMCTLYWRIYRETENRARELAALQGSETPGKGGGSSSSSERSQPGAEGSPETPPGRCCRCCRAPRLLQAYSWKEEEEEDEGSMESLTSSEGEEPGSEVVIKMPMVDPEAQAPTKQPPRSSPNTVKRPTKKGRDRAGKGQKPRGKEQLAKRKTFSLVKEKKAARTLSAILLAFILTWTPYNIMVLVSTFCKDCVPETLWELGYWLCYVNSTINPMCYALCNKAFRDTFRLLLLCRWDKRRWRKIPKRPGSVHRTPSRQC
Put plainly: Functional mobilization of intracellular calcium (FLIPR), M1-CHO cells. Conditions: for Emax: 100% efficacy = maximum response obtained with the Carbachol control; for M1 Activity: M1-CHO cells, calcium mobilization (FLIPR). Put shortly:
(§1)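 CHO cells expressing human M1–M4 receptors loaded with Fluo-3 AM or Calcium 3 dye (1 mM probenecid, pH 7.4); 0.5% DMSO final. Agonist mode: compound added directly; antagonist mode: 15 min pre-incubation or co-application, then carbachol at EC80. Fluorescence read 60 s on FLIPR; efficacy relative to carbachol maximum.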

Experiment [2] has as its target T2, M2 muscarinic receptor (Homo sapiens, UniProt P08172).
T2 construct: expressed in transfected cells; host or cells: CHO (M2-CHO)
T2 sequence (P08172 1-466): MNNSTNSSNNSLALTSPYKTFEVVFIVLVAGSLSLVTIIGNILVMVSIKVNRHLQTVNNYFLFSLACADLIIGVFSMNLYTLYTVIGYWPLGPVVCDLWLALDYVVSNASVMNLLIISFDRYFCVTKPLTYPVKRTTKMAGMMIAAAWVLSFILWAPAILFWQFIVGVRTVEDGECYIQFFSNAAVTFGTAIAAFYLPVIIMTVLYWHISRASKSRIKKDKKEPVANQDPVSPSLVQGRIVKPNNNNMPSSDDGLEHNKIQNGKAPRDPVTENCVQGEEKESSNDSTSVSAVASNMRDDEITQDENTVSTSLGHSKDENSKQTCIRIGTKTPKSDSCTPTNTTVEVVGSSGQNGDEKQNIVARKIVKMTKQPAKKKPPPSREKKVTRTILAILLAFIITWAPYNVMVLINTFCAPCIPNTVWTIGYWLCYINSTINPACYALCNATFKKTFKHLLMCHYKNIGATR
Put plainly: Functional mobilization of intracellular calcium (FLIPR), M2-CHO cells. Conditions: for Emax: 100% efficacy = maximum response obtained with the Carbachol control; for M2 Activity: M2-CHO cells, calcium mobilization (FLIPR). Put shortly:
as §1
In general terms: Calcium flux is commonly read through the fluorescence of an indicator in the cells.

Experiment [3] addresses T3, M3 muscarinic receptor (Homo sapiens, UniProt P20309).
T3 construct: expressed in transfected cells; host or cells: CHO (M3-CHO)
Put plainly: Functional mobilization of intracellular calcium (FLIPR), M3-CHO cells. Conditions: for Emax: 100% efficacy = maximum response obtained with the Carbachol control; for M3 Activity: M3-CHO cells, calcium mobilization (FLIPR). A digest of the protocol: as §1

Experiment [4] deals with T4, M4 muscarinic receptor (Homo sapiens, UniProt P08173).
T4 construct: expressed in transfected cells; host or cells: CHO (M4-CHO)
T4 sequence (P08173 1-479): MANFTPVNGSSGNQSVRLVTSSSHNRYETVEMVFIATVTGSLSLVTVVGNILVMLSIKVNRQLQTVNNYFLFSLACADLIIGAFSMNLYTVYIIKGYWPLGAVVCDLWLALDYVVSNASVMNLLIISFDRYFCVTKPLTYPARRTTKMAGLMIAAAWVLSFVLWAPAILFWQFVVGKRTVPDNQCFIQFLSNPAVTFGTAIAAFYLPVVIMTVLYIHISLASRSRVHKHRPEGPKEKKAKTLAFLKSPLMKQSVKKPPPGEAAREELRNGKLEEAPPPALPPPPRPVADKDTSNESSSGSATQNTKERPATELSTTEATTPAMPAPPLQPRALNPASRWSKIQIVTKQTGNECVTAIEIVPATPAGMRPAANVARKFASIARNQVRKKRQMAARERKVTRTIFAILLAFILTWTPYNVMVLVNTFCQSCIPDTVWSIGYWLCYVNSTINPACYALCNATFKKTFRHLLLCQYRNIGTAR
Put plainly: Functional mobilization of intracellular calcium (FLIPR), M4-CHO cells. Particulars: for Emax: 100% efficacy = maximum response obtained with the Carbachol control; for M4 Activity: M4-CHO cells, calcium mobilization (FLIPR). A digest of the protocol:
as §1

Where only a bound is given, the exact number is not on record here.

T3 sequence (P20309 whole entry): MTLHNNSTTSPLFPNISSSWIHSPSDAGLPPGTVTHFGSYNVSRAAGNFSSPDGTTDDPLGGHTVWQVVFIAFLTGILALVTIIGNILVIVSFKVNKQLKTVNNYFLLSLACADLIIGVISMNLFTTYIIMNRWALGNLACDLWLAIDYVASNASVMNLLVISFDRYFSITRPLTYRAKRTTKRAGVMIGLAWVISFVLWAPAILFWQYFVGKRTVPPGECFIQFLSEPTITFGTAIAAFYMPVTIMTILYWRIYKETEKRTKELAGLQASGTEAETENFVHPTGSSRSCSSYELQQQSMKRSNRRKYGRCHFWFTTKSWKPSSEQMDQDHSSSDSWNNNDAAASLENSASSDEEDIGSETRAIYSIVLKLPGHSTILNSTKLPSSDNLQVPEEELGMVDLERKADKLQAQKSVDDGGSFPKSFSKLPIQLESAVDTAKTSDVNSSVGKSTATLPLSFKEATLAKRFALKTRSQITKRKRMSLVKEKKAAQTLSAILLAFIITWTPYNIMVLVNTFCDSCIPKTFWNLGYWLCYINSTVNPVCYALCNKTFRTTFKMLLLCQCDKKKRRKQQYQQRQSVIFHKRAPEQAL

Take `COc1ccc(-c2ccc(F)cc2)cc1C1CCN([C@H]2C[C@H]3CC[C@H]2C3)CC1` [Compound 267]: in experiment [1], the Emax (usually the maximal effect, on the per cent scale that the assay sets) is 25 to 100% and the “M1 Activity” value is given as “+ (activity was measured to be greater than 5.0 μM)”. Moreover, in experiment [2], the Emax is < 25% and the “M2 Activity” value is “+ (activity was measured to be greater than 5.0 μM)”. In addition, in experiment [3], the maximum response (Emax) is < 25% and the “M3 Activity” value is “+ (activity was measured to be greater than 5.0 μM)”. In experiment [4], the Emax was 25 to 100% and the “M4 Activity” value is given as “+ (activity was measured to be greater than 5.0 μM)”.

On to `COc1ccc(-c2ccc(S(C)(=O)=O)cc2)cc1C1CCN(C2CCCCC2)CC1` [Compound 268], for which, in experiment [1], the Emax was in the range of 25 to 100% and the “M1 Activity” value was “+ (activity was measured to be greater than 5.0 μM)”. Moreover, in experiment [2], the Emax was in the range of 25 to 100% and the “M2 Activity” value was “+ (activity was measured to be greater than 5.0 μM)”. Moreover, in experiment [3], the Emax was < 25% and the “M3 Activity” value is “+ (activity was measured to be greater than 5.0 μM)”. In addition, in experiment [4], the Emax was 25 to 100% and the “M4 Activity” value is listed as “++ (activity was measured to be from 1.0 μM to 5.0 μM)”.

Turning to `O=C(COc1ccccc1C1CCN([C@H]2C[C@H]3CC[C@H]2C3)CC1)c1ccccc1` [Compound 269], in experiment [1], the maximum response (Emax) lay within 25 to 100% and the “M1 Activity” value is “+ (activity was measured to be greater than 5.0 μM)”. Also, in experiment [2], the Emax was < 25% and the “M2 Activity” value is on record as “+ (activity was measured to be greater than 5.0 μM)”. For the same molecule, in experiment [3], the Emax was < 25% and the “M3 Activity” value is listed as “+ (activity was measured to be greater than 5.0 μM)”. Further, in experiment [4], the Emax lay within 25 to 100% and the “M4 Activity” value is recorded as “+++ (activity was measured to be less than 1.0 μM)”.

As to `CCOC(=O)N1C2CCC1CC(N1CCC(c3cc(-c4ccc(C(=O)NC)cc4)ccc3OC)CC1)C2` (stereo not drawn) [Compound 270], in experiment [1], the Emax lay in the range of 25 to 100% and the “M1 Activity” value is “+++ (activity was measured to be less than 1.0 μM)”. Further, in experiment [2], the Emax is < 25% and the “M2 Activity” value is recorded as “+ (activity was measured to be greater than 5.0 μM)”. Further, in experiment [3], the Emax was < 25% and the “M3 Activity” value is “+ (activity was measured to be greater than 5.0 μM)”. For the same molecule, in experiment [4], the Emax lay in the range of 25 to 100% and the “M4 Activity” value is “+++ (activity was measured to be less than 1.0 μM)”.

Take `CCOC(=O)N1CCC(CN2CCC(c3ccccc3OC(F)(F)F)CC2)CC1` [Compound 271]: in experiment [1], the maximal response (Emax) is 25 to 100% and the “M1 Activity” value is “+++ (activity was measured to be less than 1.0 μM)”. Further, in experiment [2], the Emax is 25 to 100% and the “M2 Activity” value is recorded as “++ (activity was measured to be from 1.0 μM to 5.0 μM)”. Moreover, in experiment [3], the Emax is < 25% and the “M3 Activity” value was “+ (activity was measured to be greater than 5.0 μM)”. Further, in experiment [4], the Emax was 25 to 100% and the “M4 Activity” value is “+++ (activity was measured to be less than 1.0 μM)”.

`CCOC(=O)N1CCC(CN2CCC(c3cc(-c4ccc(C(C)(C)C#N)cc4)ccc3OC)CC2)CC1` [Compound 272]: in experiment [1], the Emax fell in the range of 25 to 100% and the “M1 Activity” value is listed as “+++ (activity was measured to be less than 1.0 μM)”. In experiment [2], the Emax was < 25% and the “M2 Activity” value is reported as “+ (activity was measured to be greater than 5.0 μM)”. Besides, in experiment [3], the maximal effect (Emax) is < 25% and the “M3 Activity” value is listed as “+ (activity was measured to be greater than 5.0 μM)”. In addition, in experiment [4], the Emax lay within 25 to 100% and the “M4 Activity” value was “+++ (activity was measured to be less than 1.0 μM)”.

For the molecule `COc1ccc(Cl)cc1C1CCN(C2CCC(=O)CC2)CC1` [Compound 273, 4-(4-(5-chloro-2-methoxyphenyl)piperidin-1-yl)cyclohexanone], in experiment [1], the Emax was 25 to 100% and the “M1 Activity” value is recorded as “+ (activity was measured to be greater than 5.0 μM)”. In addition, in experiment [2], the maximal effect (Emax) is 25 to 100% and the “M2 Activity” value was “++ (activity was measured to be from 1.0 μM to 5.0 μM)”. In experiment [3], the Emax was < 25% and the “M3 Activity” value is “+ (activity was measured to be greater than 5.0 μM)”. Moreover, in experiment [4], the Emax fell in the range of 25 to 100% and the “M4 Activity” value is on record as “+++ (activity was measured to be less than 1.0 μM)”.

Turning to `Fc1cccc(-c2ccccc2C2CCN([C@H]3C[C@H]4CC[C@H]3C4)CC2)c1` [Compound 274], in experiment [1], the Emax was < 25% and the “M1 Activity” value was “+ (activity was measured to be greater than 5.0 μM)”. For the same molecule, in experiment [2], the Emax is < 25% and the “M2 Activity” value is on record as “+ (activity was measured to be greater than 5.0 μM)”. In experiment [3], the maximal response (Emax) is < 25% and the “M3 Activity” value is “+ (activity was measured to be greater than 5.0 μM)”. In experiment [4], the Emax is 25 to 100% and the “M4 Activity” value was “++ (activity was measured to be from 1.0 μM to 5.0 μM)”.

For the molecule `COc1ccc(-c2ccc(S(C)(=O)=O)cc2)cc1C1CCN(C2CCCC2)CC1` [Compound 275], in experiment [1], the Emax is 25 to 100% and the “M1 Activity” value is listed as “+ (activity was measured to be greater than 5.0 μM)”. For the same molecule, in experiment [2], the Emax lay within 25 to 100% and the “M2 Activity” value is on record as “+ (activity was measured to be greater than 5.0 μM)”. Also, in experiment [3], the maximal effect (Emax) was < 25% and the “M3 Activity” value is given as “+ (activity was measured to be greater than 5.0 μM)”. In experiment [4], the Emax was in the range of 25 to 100% and the “M4 Activity” value is “++ (activity was measured to be from 1.0 μM to 5.0 μM)”.

`Fc1cccc(C2CCN(C3C[C@H]4CC[C@H]3C4)CC2)c1F` (stereo partly drawn) [Compound 276]: in experiment [1], the Emax was 25 to 100% and the “M1 Activity” value was “+ (activity was measured to be greater than 5.0 μM)”. In experiment [2], the Emax was < 25% and the “M2 Activity” value is recorded as “+ (activity was measured to be greater than 5.0 μM)”. Besides, in experiment [3], the maximum response (Emax) is < 25% and the “M3 Activity” value is “+ (activity was measured to be greater than 5.0 μM)”. Further, in experiment [4], the maximum response (Emax) fell in the range of 25 to 100% and the “M4 Activity” value is listed as “++ (activity was measured to be from 1.0 μM to 5.0 μM)”.

As to `COc1ccc(-c2cccc(C)c2)cc1C1CCN([C@H]2C[C@H]3CC[C@H]2C3)CC1` [Compound 277], in experiment [1], the Emax was < 25% and the “M1 Activity” value is recorded as “+ (activity was measured to be greater than 5.0 μM)”. In experiment [2], the Emax is < 25% and the “M2 Activity” value was “+ (activity was measured to be greater than 5.0 μM)”. Moreover, in experiment [3], the Emax is < 25% and the “M3 Activity” value was “+ (activity was measured to be greater than 5.0 μM)”. Also, in experiment [4], the Emax was < 25% and the “M4 Activity” value is on record as “+ (activity was measured to be greater than 5.0 μM)”.

In the case of `COc1ccc(Cl)cc1C1CCN(CC2CC3CCC2CC3)CC1` (stereo not drawn) [Compound 280], in experiment [1], the Emax was < 25% and the “M1 Activity” value is recorded as “+ (activity was measured to be greater than 5.0 μM)”. Moreover, in experiment [2], the Emax was < 25% and the “M2 Activity” value is on record as “+ (activity was measured to be greater than 5.0 μM)”. Further, in experiment [3], the Emax is < 25% and the “M3 Activity” value was “+ (activity was measured to be greater than 5.0 μM)”. Also, in experiment [4], the Emax was 25 to 100% and the “M4 Activity” value is “++ (activity was measured to be from 1.0 μM to 5.0 μM)”.
